{"source": "patent US11278589B2", "about": "“Use of a cyclic tripeptide for improving cellular energy metabolism” (ASSISTANCE PUBLIQUE—HOPITAUX DE PARIS, priority 2015, dated 2022)", "system": "Human oocytes", "assay": "Randomized prospective study in human IVF (fertilin study)", "type": "in vivo", "details": "first step, 56 couples", "description": "A clinical trial was begun in the IVF laboratory of the MAP Center of Cochin, on Sep. 8, 2014, on 66 couples, the average age being 34.3±4.2 years old for the women and 37.0±5.2 for their partners. It is a randomized, single-center prospective study of in vitro fertilization (IVF) carried out in the presence or absence of FEEc. The oocytes, recovered from their cumulus, were divided up into two groups alternately into one and then into the other according to their order of recovery. When all the oocytes were recovered, a technician who had not participated in the recovery of the cumuli determined by randomization which of the two groups was inseminated in the presence of FEEc and which served as control. One part of the oocytes is incubated in the standard culture medium (Global, JCD), the other part in this same medium supplemented with 100 μM FEEc.\nThe methodology of this study, represented diagrammatically in FIG. 9, is presented below. Human oocytes originating from women 18 to 43 years old were recovered by ovarian puncture after hormonal stimulation by gynecologists. They were divided up in a randomized manner into 2 groups: the oocytes incubated in the presence of a standard culture medium supplemented with 100 μM FEEc or of a standard culture medium (Global, JCD), then placed in an incubator at 37° C. under an atmosphere of 5% of CO2. […]", "note": "Positions of bridges follow the written chain, without caps; N, C: chain ends. Residues, ends and D or L forms follow the SMILES beside them.", "data": [{"smiles": "N[C@H]1CSSC[C@@H](C(=O)O)NC(=O)[C@H](CCC(=O)O)NC(=O)[C@H](CCC(=O)O)NC(=O)[C@H](Cc2ccccc2)NC(=O)[C@H](CO)NC1=O", "note": "[FEEc, C-S-F-E-E-C] (H-CSFEEC-OH; disulfide 1-6)", "values": [{"measurement": "adverse effect", "value": "No adverse effect has been reported to date"}]}]}
